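Following 48 hours of exposure in 96-well plates, responses at five concentrations were used to interpolate endpoints linearly. GI50 is the concentration that inhibits growth by half. TGI is the concentration that stops growth completely.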
Columns and labels:
Experiment in all cases: growth of human tumour cells (NCI), 48 h
786-0 renal = test system: 786-0 renal
ACHN renal = test system: ACHN renal
BT-549 breast = test system: BT-549 breast
CAKI-1 renal = test system: CAKI-1 renal
CCRF-CEM leukemia = test system: CCRF-CEM leukemia
DU-145 prostate = test system: DU-145 prostate
EKVX NSCLC = test system: EKVX NSCLC
HCC-2998 colon = test system: HCC-2998 colon
HCT-15 colon = test system: HCT-15 colon
HOP-92 NSCLC = test system: HOP-92 NSCLC
IGROV1 ovarian = test system: IGROV1 ovarian
K-562 leukemia = test system: K-562 leukemia
MALME-3M melanoma = test system: MALME-3M melanoma
MCF7 breast = test system: MCF7 breast
MDA-MB-231 breast = test system: MDA-MB-231 breast
MDA-MB-435 = test system: MDA-MB-435
MOLT-4 leukemia = test system: MOLT-4 leukemia
NCI-H460 lung = test system: NCI-H460 lung
NCI/ADR-RES ovarian = test system: NCI/ADR-RES ovarian
OVCAR-3 ovarian = test system: OVCAR-3 ovarian
OVCAR-4 ovarian = test system: OVCAR-4 ovarian
OVCAR-5 ovarian = test system: OVCAR-5 ovarian
PC-3 prostate = test system: PC-3 prostate
RXF 393 renal = test system: RXF 393 renal
SF-295 CNS = test system: SF-295 CNS
SF-539 CNS = test system: SF-539 CNS
SK-MEL-28 melanoma = test system: SK-MEL-28 melanoma
SK-OV-3 ovarian = test system: SK-OV-3 ovarian
SN12C renal = test system: SN12C renal
SNB-19 CNS = test system: SNB-19 CNS
SNB-75 CNS = test system: SNB-75 CNS
SR leukemia = test system: SR leukemia
TK-10 renal = test system: TK-10 renal
UACC-62 melanoma = test system: UACC-62 melanoma
UO-31 renal = test system: UO-31 renal
A498 renal = test system: A498 renal
A549 NSCLC = test system: A549 NSCLC
COLO 205 colon = test system: COLO 205 colon
HCT-116 colon = test system: HCT-116 colon
HL-60(TB) leukemia = test system: HL-60(TB) leukemia
HOP-62 NSCLC = test system: HOP-62 NSCLC
HS 578T breast = test system: HS 578T breast
HT29 colon = test system: HT29 colon
KM12 colon = test system: KM12 colon
M14 melanoma = test system: M14 melanoma
NCI-H226 lung = test system: NCI-H226 lung
NCI-H23 lung = test system: NCI-H23 lung
NCI-H522 lung = test system: NCI-H522 lung
OVCAR-8 ovarian = test system: OVCAR-8 ovarian
RPMI-8226 leukemia = test system: RPMI-8226 leukemia
SF-268 CNS = test system: SF-268 CNS
SK-MEL-2 melanoma = test system: SK-MEL-2 melanoma
SK-MEL-5 melanoma = test system: SK-MEL-5 melanoma
SW-620 colon = test system: SW-620 colon
U251 CNS = test system: U251 CNS
UACC-257 melanoma = test system: UACC-257 melanoma

SMILES: C=C(C)[C@@H]1CC[C@]2(COP(=O)(OCC)OCC)CC[C@]3(C)[C@H](CC[C@@H]4[C@@]5(C)CCCNC(C)(C)[C@@H]5CC[C@]43C)[C@@H]12
- GI50 (786-0 renal): 1710 nM
- TGI (786-0 renal): 3210 nM
- GI50 (ACHN renal): 1730 nM
- TGI (ACHN renal): 3140 nM
- GI50 (BT-549 breast): 1680 nM
- TGI (BT-549 breast): 3090 nM
- GI50 (CAKI-1 renal): 1500 nM
- TGI (CAKI-1 renal): 2990 nM
- GI50 (CCRF-CEM leukemia): 1710 nM
- TGI (CCRF-CEM leukemia): 3850 nM
- GI50 (DU-145 prostate): 1790 nM
- TGI (DU-145 prostate): 3390 nM
- GI50 (EKVX NSCLC): 1460 nM
- TGI (EKVX NSCLC): 2880 nM
- GI50 (HCC-2998 colon): 1720 nM
- TGI (HCC-2998 colon): 3220 nM
- GI50 (HCT-15 colon): 1560 nM
- TGI (HCT-15 colon): 3050 nM
- GI50 (HOP-92 NSCLC): 1230 nM
- TGI (HOP-92 NSCLC): 2570 nM
- GI50 (IGROV1 ovarian): 1610 nM
- TGI (IGROV1 ovarian): 3180 nM
- GI50 (K-562 leukemia): 1660 nM
- TGI (K-562 leukemia): 7000 nM
- GI50 (MALME-3M melanoma): 1680 nM
- TGI (MALME-3M melanoma): 3370 nM
- GI50 (MCF7 breast): 1330 nM
- TGI (MCF7 breast): 2970 nM
- GI50 (MDA-MB-231 breast): 1750 nM
- TGI (MDA-MB-231 breast): 3330 nM
- GI50 (MDA-MB-435): 1730 nM
- TGI (MDA-MB-435): 3180 nM
- GI50 (MOLT-4 leukemia): 1850 nM
- TGI (MOLT-4 leukemia): 4720 nM
- GI50 (NCI-H460 lung): 1790 nM
- TGI (NCI-H460 lung): 4620 nM
- GI50 (NCI/ADR-RES ovarian): 1660 nM
- TGI (NCI/ADR-RES ovarian): 3260 nM
- GI50 (OVCAR-3 ovarian): 1670 nM
- TGI (OVCAR-3 ovarian): 3380 nM
- GI50 (OVCAR-4 ovarian): 1540 nM
- TGI (OVCAR-4 ovarian): 3130 nM
- GI50 (OVCAR-5 ovarian): 1720 nM
- TGI (OVCAR-5 ovarian): 3140 nM
- GI50 (PC-3 prostate): 1590 nM
- TGI (PC-3 prostate): 2980 nM
- GI50 (RXF 393 renal): 1550 nM
- TGI (RXF 393 renal): 2910 nM
- GI50 (SF-295 CNS): 1680 nM
- TGI (SF-295 CNS): 3150 nM
- GI50 (SF-539 CNS): 1730 nM
- TGI (SF-539 CNS): 3240 nM
- GI50 (SK-MEL-28 melanoma): 1750 nM
- TGI (SK-MEL-28 melanoma): 3180 nM
- GI50 (SK-OV-3 ovarian): 1690 nM
- TGI (SK-OV-3 ovarian): 3250 nM
- GI50 (SN12C renal): 1570 nM
- TGI (SN12C renal): 3150 nM
- GI50 (SNB-19 CNS): 1710 nM
- TGI (SNB-19 CNS): 3170 nM
- GI50 (SNB-75 CNS): 1220 nM
- TGI (SNB-75 CNS): 2850 nM
- GI50 (SR leukemia): 1410 nM
- TGI (SR leukemia): 4090 nM
- GI50 (TK-10 renal): 1860 nM
- TGI (TK-10 renal): 3580 nM
- GI50 (UACC-62 melanoma): 1700 nM
- TGI (UACC-62 melanoma): 3200 nM
- GI50 (UO-31 renal): 1440 nM
- TGI (UO-31 renal): 2810 nM

SMILES: O=C(Nc1ccc(F)c(F)c1)c1cc(-c2ccc(F)cc2F)ccc1O
- GI50 (786-0 renal): 1120 nM
- TGI (786-0 renal): 2900 nM
- GI50 (A498 renal): 636 nM
- TGI (A498 renal): 2070 nM
- GI50 (A549 NSCLC): 1570 nM
- TGI (A549 NSCLC): > 50000 nM
- GI50 (ACHN renal): 1460 nM
- TGI (ACHN renal): 4550 nM
- GI50 (BT-549 breast): 1060 nM
- TGI (BT-549 breast): 7180 nM
- GI50 (CAKI-1 renal): 1100 nM
- TGI (CAKI-1 renal): 3520 nM
- GI50 (CCRF-CEM leukemia): 1620 nM
- TGI (CCRF-CEM leukemia): > 50000 nM
- GI50 (COLO 205 colon): 10600 nM
- TGI (COLO 205 colon): 30500 nM
- GI50 (DU-145 prostate): 1850 nM
- TGI (DU-145 prostate): > 50000 nM
- GI50 (EKVX NSCLC): 1380 nM
- TGI (EKVX NSCLC): 15700 nM
- GI50 (HCC-2998 colon): 1490 nM
- TGI (HCC-2998 colon): > 50000 nM
- GI50 (HCT-116 colon): 1120 nM
- TGI (HCT-116 colon): 5940 nM
- GI50 (HCT-15 colon): 1430 nM
- TGI (HCT-15 colon): 6230 nM
- GI50 (HL-60(TB) leukemia): 1110 nM
- TGI (HL-60(TB) leukemia): 2810 nM
- GI50 (HOP-62 NSCLC): 1590 nM
- TGI (HOP-62 NSCLC): 6150 nM
- GI50 (HOP-92 NSCLC): 684 nM
- TGI (HOP-92 NSCLC): 2640 nM
- GI50 (HS 578T breast): 1610 nM
- TGI (HS 578T breast): > 50000 nM
- GI50 (HT29 colon): 13800 nM
- TGI (HT29 colon): > 50000 nM
- GI50 (IGROV1 ovarian): 1810 nM
- TGI (IGROV1 ovarian): > 50000 nM
- GI50 (K-562 leukemia): 1370 nM
- TGI (K-562 leukemia): > 50000 nM
- GI50 (KM12 colon): 1670 nM
- TGI (KM12 colon): 6650 nM
- GI50 (M14 melanoma): 1630 nM
- TGI (M14 melanoma): 9820 nM
- GI50 (MALME-3M melanoma): 1010 nM
- TGI (MALME-3M melanoma): 3070 nM
- GI50 (MCF7 breast): 1180 nM
- TGI (MCF7 breast): > 50000 nM
- GI50 (MDA-MB-435): 1430 nM
- TGI (MDA-MB-435): 6510 nM
- GI50 (MOLT-4 leukemia): 1540 nM
- TGI (MOLT-4 leukemia): 5860 nM
- GI50 (NCI-H226 lung): 1510 nM
- TGI (NCI-H226 lung): 10100 nM
- GI50 (NCI-H23 lung): 1070 nM
- TGI (NCI-H23 lung): 3230 nM
- GI50 (NCI-H460 lung): 1460 nM
- TGI (NCI-H460 lung): > 50000 nM
- GI50 (NCI-H522 lung): 923 nM
- TGI (NCI-H522 lung): > 50000 nM
- GI50 (OVCAR-4 ovarian): 1370 nM
- TGI (OVCAR-4 ovarian): > 50000 nM
- GI50 (OVCAR-5 ovarian): 1550 nM
- TGI (OVCAR-5 ovarian): > 50000 nM
- GI50 (OVCAR-8 ovarian): 1650 nM
- TGI (OVCAR-8 ovarian): > 50000 nM
- GI50 (PC-3 prostate): 1490 nM
- TGI (PC-3 prostate): > 50000 nM
- GI50 (RPMI-8226 leukemia): 768 nM
- TGI (RPMI-8226 leukemia): 2720 nM
- GI50 (RXF 393 renal): 1250 nM
- TGI (RXF 393 renal): 3870 nM
- GI50 (SF-268 CNS): 1580 nM
- TGI (SF-268 CNS): > 50000 nM
- GI50 (SF-295 CNS): 1200 nM
- TGI (SF-295 CNS): 3580 nM
- GI50 (SF-539 CNS): 1730 nM
- TGI (SF-539 CNS): > 50000 nM
- GI50 (SK-MEL-2 melanoma): 979 nM
- TGI (SK-MEL-2 melanoma): 2860 nM
- GI50 (SK-MEL-28 melanoma): 1410 nM
- TGI (SK-MEL-28 melanoma): 19100 nM
- GI50 (SK-MEL-5 melanoma): 694 nM
- TGI (SK-MEL-5 melanoma): 1670 nM
- GI50 (SK-OV-3 ovarian): 1370 nM
- TGI (SK-OV-3 ovarian): 4700 nM
- GI50 (SN12C renal): 1090 nM
- TGI (SN12C renal): 4630 nM
- GI50 (SNB-19 CNS): 1650 nM
- TGI (SNB-19 CNS): > 50000 nM
- GI50 (SNB-75 CNS): 906 nM
- TGI (SNB-75 CNS): 2720 nM
- GI50 (SR leukemia): 1920 nM
- TGI (SR leukemia): > 50000 nM
- GI50 (SW-620 colon): 1790 nM
- TGI (SW-620 colon): > 50000 nM
- GI50 (TK-10 renal): 1700 nM
- TGI (TK-10 renal): > 50000 nM
- GI50 (U251 CNS): 1480 nM
- TGI (U251 CNS): > 50000 nM
- GI50 (UACC-257 melanoma): 781 nM
- TGI (UACC-257 melanoma): 3600 nM
- GI50 (UACC-62 melanoma): 628 nM
- TGI (UACC-62 melanoma): 2410 nM
